Laboratory results reported in patent US20240189490A1, “ANTIMICROBIAL ELUTING AIRWAY DEVICES” (priority 2021, published 2024).
No end group written: not given here.

What was measured:
[1] = Release of loaded protein or peptide from coated ET tubes in PBS; format: physicochemical
Experimental: Release Quantification. Release of loaded protein or peptide from ET tubes was achieved from quartered tube segments in PBS at 37° C. while shaking at 100 rpm. FITC-BSA elution and PLGA degradation samples were obtained by completely removing the supernatant and adding fresh PBS to each well. […] PLGA degradation was quantified via EnzyFluo L-Lactate Assay Kit (Bioassay Systems). Peptide release was quantified via Pierce Quantitative Fluorometric Peptide Assay (Thermo Scientific).

[2] = tested on: S. epidermidis; assay: Minimum inhibitory concentration (MIC) of Lasio; format: cell-based, Staphylococcus epidermidis; parameters: unit not given here; details: data not shown
Experimental: (§1) Bacteria Culture. Staphylococcus epidermidis (Winslow and Winslow) Evans (ATCC 13990) was cultured in nutrient broth aerobically at 37° C. Streptococcus pneumoniae (Klein) Chester (NCTC 7465; ATCC 33400) was cultured in Brain Heart Infusion Broth and plated on Trypticase soy agar with 5% defibrinated sheep blood (Colorado Serum Co.) aerobically (5% CO2) at 37° C.
(§2) Antibacterial Activity Assay.

[3] = tested on: patient derived laryngotracheal fibroblasts
Experimental: Peptide/PLGA coated tubes and controls were first submerged in Fluorobrite DMEM supplemented with 10% FBS, 2% Anti-Anti, 1% MEM NEAA, and incubated for 24 hours at 37° ° C. while shaking at 100 rpm to achieve release. Simultaneously, laryngotracheal fibroblasts were seeded at 7,000 cells/well in 48 well plates and allowed to adhere overnight in a culture atmosphere at 37° C., 95% relative humidity, and 5% CO2. Cell media was replaced with appropriate tube releasate and incubated for 24 hours in the culture atmosphere. Invitrogen AlamarBlue HS Cell Viability Reagent (ThermoFisher Scientific) was used to quantify viability.

[4] = tested on: Staphylococcus epidermidis; assay: Crystal violet biofilm assay on ET tubes; format: cell-based; details: 24 hours, 1×MIC/PLGA vs uncoated, 0.5×MIC/PLGA, free peptide vs 1×MIC/PLGA p<0.0001
Experimental: as §1, §2

[5] = tested on: Staphylococcus epidermidis; assay: Adherent bacterial viability on ET tubes (colony counts); format: cell-based; details: 24 hours, 1×MIC/PLGA vs uncoated, 0.5×MIC/PLGA p<0.0001, free peptide vs 1×MIC/PLGA p=0.0015
Experimental: as §1, §2

Row | Substance | linear release rate ([1]; mouse sized tube loaded with 17.04 μg peptide, over 9 days) [µg/day] | encapsulated peptide released ([1]; mouse sized tube, by day 9) [%] | viability [%] | minimum inhibitory concentration [2] | cytotoxicity toward human patient-derived laryngotracheal fibroblasts [3] | adherent bacterial populations (crystal violet biofilm assay) [4] | linear release ([1]; from PLGA coated ET tubes, PBS at 37° C. shaking at 100 rpm, after initial burst release) [µg/day] | viability of adherent bacteria [5]
1 | A4K14-citropin 1.1 | 0.397 | ~80 | – | – | – | – | – | –
2 | VNWKKILGKIIKVVK-NH2 (C-terminus assumed) [Lasio, Lasioglossin-III] | – | – | 62.3 | 1.25 | not cytotoxic | significant reduction in adherent bacteria | 0.28 | inhibited the viability of adherent bacteria
